The values that follow come from ChEMBL document CHEMBL4385648 (Bioorg Med Chem, 2019).

One assay concerns the target Neuraminidase (Influenza A virus, UniProt B4URF0). In words: Inhibition of Influenza A virus (A/Anhui/1/2013 (H7N9) neuraminidase expressed by HEK293 cells incubated for 1 hr using 4-MU-NANA substrate by spectrofluorometric assay. The class given is cell-based.
Assay [1] is described as follows: Inhibition of Influenza A virus (A/Babol/36/2005 (H3N2) neuraminidase expressed by HEK293 cells incubated for 1 hr using 4-MU-NANA substrate by spectrofluorometric assay. It counts as cell-based.

For orientation: IC50 means the concentration that gives 50% inhibition. For the molecule `CCCC(=O)c1c(O)cc(O)c(CC2=C(O)C(C)(C)C(O)=C(C(C)=O)C2=O)c1O`, the IC50 at Neuraminidase (read-out: IC50) is 1.6 µM; in assay [1] (read-out: IC50), 5.6 µM.
The like results for `CCCC(=O)c1c(O)c(CC2=C(O)C(C)(C)C(O)=C(C(C)=O)C2=O)c(O)c(Cc2c(O)c(CC3=C(O)C(C)(C)C(O)=C(C(C)=O)C3=O)c(O)c(C(=O)CCC)c2O)c1O` were, in that order, 3.6 µM and 36.1 µM.
On to `CC(=O)C1=C(O)C(C)(C)C(O)=C(CC2=C(O)C(C)(C)C(O)=C(C(C)=O)C2=O)C1=O`, for which the half-maximal inhibitory concentration (IC50) result (against Neuraminidase (hek293); in assay [1]) was “Not Active” each time.
For the molecule `CCOC(=O)C1=C[C@@H](OC(CC)CC)[C@H](NC(C)=O)[C@@H](N)C1` [OSELTAMIVIR], in assay [1] (read-out: IC50), the half-maximal inhibitory concentration (IC50) is 0.1 µM.
On to `CCCC(=O)c1c(O)c(C=O)c(O)c(Cc2c(O)c(C=O)c(O)c(C(=O)CCC)c2O)c1O`, for which the 50% inhibitory concentration (IC50) at Neuraminidase (read-out: IC50) is 2.5 µM; in assay [1] (read-out: IC50) it was 9.8 µM.
